From patent US7005425B2, “Method for treating arrhythmias” (CV Therapeutics, Inc., priority 2002, dated 2006)

Assays:
[1] = system: awake rats; experiment: Telemetry studies of heart rate in awake rats; format: in vivo, Rats (Sprague Dawley)
Protocol: Rats (Sprague Dawley) weighing 300–400 gms were purchased from Simonsen laboratories. CVT-3619 was dissolved in DMSO and further diluted in saline. CVT-510 was dissolved in saline. Ketamine was purchased from Fort Dodge Animal Health, Xylazine from Bayer and Acepromazine Maleate from Fermenta Animal Health Co. Metoprolol and propranolol were purchased from SIGMA. Esmolol was obtained from a local pharmacy.
For these studies, rats were instrumented with radiotelemetered transmitters (Data Sciences) at least 3 weeks prior to experimentation. Animals were anesthetized by peritoneal injection of a “cocktail” (1 ml/kg) containing Ketamine (75 mg/ml), Xylazine (5 mg/ml), and Acepromazine (1 mg/ml). After 20–30 minutes of induction of anesthesia, a midline laparotomy was performed. The transmitter for recordings of ECG, blood pressure and body temperature was placed in the abdominal cavity, and secured to the abdominal muscles. Two electrocardiographic leads were tunneled through the subcutaneous—one toward the upper left shoulder and the other to the right thigh, and secured with sutures. A fluid filled sensor catheter was inserted in the descending aorta above the iliac bifurcation for measurement of blood pressure. The tip of the telemetry catheter was located in the abdominal aorta just caudal to the renal arteries. Once the transmitter and leads were in place and determined to be functioning properly, the abdominal wall was sutured. After recovery from anesthesia, the rats were housed individually in cages placed on their respective receivers. The ECG, blood pressure and temperature were recorded and heart rate measured by a Dataquest ART Gold system (Version 2.2; Data Sciences Intl). The system consisted of a transmitter, i.e., biopotential sensor (Model TL11M2-C50-PXT), receivers (Model RPC-1), a consolidation matrix (BCM 100), a personal computer (Compaq DeskPro Series 3574) and Dataquest 4 software. Heart rate, blood pressure and temperature were measured at 5-minute intervals. Each recording lasted 10 seconds and all cardiac cycles within this period were averaged. Animals were given various drugs in a randomized manner after recording the baseline data for at least two hours.
A subgroup of animals was implanted with osmotic pumps containing CVT-510 for combination experiments. […]
The slowing of heart rate caused by each treatment was quantified by determining the area under the curve (AUC), using the trapezoidal method for calculations. Data used for analysis was the area under/over the curve calculated using change form baseline data (untreated animals). The data was analyzed for the magnitude as well as the duration of bradycardia caused by each treatment. […]

[2] = system: anesthetized guinea pigs; experiment: PR interval (AV nodal conduction) in anesthetized, paced guinea pigs; format: in vivo; settings: metoprolol 0.1 mg/kg iv bolus
From the text: Male guinea pigs weighing 400–450 gm were obtained from Simonsen labs and housed in the institutional laboratory animal facility. Animals were anesthetized with isoflurane in the anesthetizing chamber. After determining (by toe pinch) that the animal is adequately anesthetized, the animals was intubated with an endotracheal tube and ventilated with isoflurane and oxygen mixture using anesthesia workstation. Using sterile equipment and aseptic technique, the right carotid artery was exposed and a catheter inserted for recording of blood pressure (BP). A quadripolar electrode catheter was introduced via the right jugular vein and positioned in the right atrium and ventricle for atrial and ventricular pacing. The hearts were paced at a constant rate (330–360 bpm) to eliminate the effect of heart rate variability between animals. Another catheter was inserted into the left jugular vein and positioned in the right atrium for the administration of drugs and saline. Subcutaneous needles were used as standard electrocardiographic leads to record the electrocardiogram (ECG). After completion of surgery and instrumentation, a 20 min equilibration period was allowed before beginning the experimental protocol. […] When the two agents were given in combination the PR interval was increased up to 15 msec. […] Esmolol was administered at three different infusion rates. […]

[3] = cited from earlier work

O[C@@H]1[C@@H](CSc2ccccc2F)OC(n2cnc3c(N[C@@H]4CCC[C@H]4O)ncnc32)[C@@H]1O (stereo partly drawn) [CVT-3619, 2-{6-[((1R,2R)-2-hydroxycyclopentyl)amino]purin-9-yl}(4S,5S,3R)-5-[(2-fluorophenylthio)methyl]oxolane-3,4-diol]
effect on heart rate (FIG. 1) ([1]; CVT-3619 0.5 mg/kg ip alone): minimal effect on heart rate

COC(=O)CCc1ccc(OCC(O)CNC(C)C)cc1 (stereo not shown) [esmolol, reference compound]
effect on heart rate (FIG. 3) ([1]; esmolol 10 mg/kg ip alone, heart rate increase caused by handling): only slightly reduces the increase in heart rate

COCCc1ccc(OCC(O)CNC(C)C)cc1 (stereo not shown) [metoprolol, reference compound]
increase of PR interval (FIG. 9) [2]: 5 ms

Nc1ncnc2c1ncn2[C@@H]1O[C@H](CO)[C@@H](O)[C@H]1O [Adenosine]
half-life [3]: ~10 s
